From EP0404115A1, “Bis(benzylpyrrolidine)Derivatives as dopamine agonists” (SYNTEX (U.S.A.) INC., priority 1989, dated 1990)
Where two headings read alike, the source gives them in different places.

How the values were obtained:
[1] = cited from earlier work
DA₂ receptor = test: Goldberg femoral in vivo dog model (DA2 activity, intra-arterial)
Procedure: The compounds were subsequently tested following intra-arterial administration in an in situ renal and femoral arterial preparation in the dog, as developed by L.I. Goldberg, to test for DA1 and DA2 dopamine activity, respectively. Details of the methodology are provided in the European J. Pharmacol., 89:137, 1983, as well as in Hypertension, 6:1-25, 1984.
The compound was injected directly into the renal or femoral artery for analysis of DA₁ or DA₂ activity, respectively. […] The compound was tested for relative activity in comparison to the standard DA₁ agonist, dopamine or the standard DA₂ agonist, DPDA. Specific DA₁ or DA₂ activity of the tested compound was verified by Sch 23390 or domperidone blockade.
Adult mongrel dogs of either sex (11-20 kg) were anesthetized with pentobarbital sodium (33 mg/kg, i.v.). the animals were intubated and ventilated with room air using a Harvard respirator. […]
The optimal dose of compound was defined as that which produced a maximum increase in blood flow before causing a change in systemic blood pressure. Efficacy ratios were determined by division of the optimal response of the test compound by the optimal response of the standard agent. […] Potency ratios were the quotients calculated from the division of the standard agent ED₅₀ by the ED₅₀ of the test compound. […]

DA₁ receptor = test: Goldberg renal in vivo dog model (DA1 activity, intra-arterial); conditions: for Relative Efficacy to DA₁ Standard: optimal response divided by optimal response of dopamine
Procedure: The compounds were subsequently tested following intra-arterial administration in an in situ renal and femoral arterial preparation in the dog, as developed by L.I. […] Details of the methodology are provided in the European J. […] The compound was injected directly into the renal or femoral artery for analysis of DA₁ or DA₂ activity, respectively. […] Specific DA₁ or DA₂ activity of the tested compound was verified by Sch 23390 or domperidone blockade. Adult mongrel dogs of either sex (11-20 kg) were anesthetized with pentobarbital sodium (33 mg/kg, i.v.). the animals were intubated and ventilated with room air using a Harvard respirator. The abdominal aorta was catheterized with a Millar micro-tip (size: 5F) transducer via the right femoral artery for pressure monitoring. The right femoral vein was cannulated with PE-160 tubing for iv saline infusion, as well as, supplemental pentobarbital administration. The left renal artery was isolated through a lateral abdominal incision. An electromagnetic flowprobe of the appropriate size (9-12 mm circ) was placed around the artery and connected to a Carolina Medical electromagnetic flowmeter. Surface ECG leads were placed subcutaneously on the chest and limbs to monitor heart rate. A 25 gauge 3/4" needle bent 90°, 4 mm from the tip, was placed in the renal artery proximal to the probe and connected to an infusion pump delivering saline at a constant rate of 1 ml/min. […] Blood pressure was maintained by supplemental saline (10-20 ml/kg, iv). Bradykinin, a standard for nonspecific vasodilation, was given at 0.62 nmole doses, in 0.2 ml saline, i.a., prior to generating a dose response curve for dopamine in which 4-fold increase doses, ranging from 3 to 48 nmoles, were injected i.a. in 0.2 ml of saline. Test compound was injected similarly in 4-fold increasing doses up to a maximum of 3000 nmoles. […] The optimal dose of compound was defined as that which produced a maximum increase in blood flow before causing a change in systemic blood pressure. Efficacy ratios were determined by division of the optimal response of the test compound by the optimal response of the standard agent. ED₅₀ values were derived by regression analysis from individually generated dose response curves. Potency ratios were the quotients calculated from the division of the standard agent ED₅₀ by the ED₅₀ of the test compound.

[2] = test system: spontaneously hypertensive rats; test: Oral antihypertensive activity in conscious restrained spontaneously hypertensive rat; type: in vivo
Procedure: The compounds of this invention were screened for oral antihypertensive activity in the conscious restrained rat. Adult male SHR were instrumented for blood pressure and heart rate measurements under light ether anesthesia. The animals were maintained on a plexiglass restraining board following surgery, and were allowed a 1 hour recovery period prior to the oral administration of the test compounds.
Male spontaneously hypertensive rats, SHR/NVr1Br (320-410 g) were fasted overnight. The following morning the left femoral artery and vein of each rat was cannulated under light ether anesthesia. following surgery, the rats were placed on a rat restraining board and allowed to recover from the effects of the ether for 1 hour. ECG leads were placed on the animal's chest to monitor heart reate. Animals were divided into groups of 4 and dosed with the test compound (R₁ and R₂ = H; X = (CH₂)m; m = 6).
Blood pressure and heart rate readings were taken at 5 minute intervals for the first 15 minutes and every 15 minutes thereafter for a duration of 4 hour post-compound administration. Data was evaluated by two-tailed paired t-tests.

[3] = test system: spontaneously hypertensive rat (SHR); test: Diuretic activity in saline-loaded spontaneously hypertensive rat; type: in vivo
Procedure: Additionally, these compounds were examined for diuretic activity for 6 hours following oral compound administration in the saline-loaded spontaneously hypertensive rat (SHR). Methods for this assay have been previously described (Rosenkranz, et al, Proc. West. Pharmacol. Soc. 28:87, 1985). The diuretic and natriuretic effects elicited by these compounds were characterized by an immediate onset of action.
Male spontaneously hypertensive SHR/NCr1BR rats weighing 320-430 gms were divided into four groups of seven animals. All animals were food- and water-deprived overnight. The following morning, each group of rats was hydrated with deionized water (20 ml/kg, po) forty-five minutes prior to the administration of vehicle or the test compound (R₁ and R₂ = H; X = (CH₂)n, m = 6).
Following vehicle or drug, the rats were placed in individual metabolic units. Fifteen minutes post-dose the animals were saline-loaded (30 ml/kg, po). Urine was collected at 1, 3 and 6 hour intervals post-saline-load. Urine volumes were measured and sodium and potassium levels were determined by flame photometry.
A two-way analysis of variance with time, treatment and their interaction was run as a repeated measures analysis. A secondary model of one-way analysis of variance (by time) was run using specified contrasts. The p-values for the contrasts were adjusted using Fisher's LSD strategy at each time point.

Rats = test: 7-day toxicity in rats; type: in vivo; conditions: 30 and 100 mg/kg once a day for 7 days
Procedure: Rats were administered compound I (R₁ and R₂ = H; X = (CH₂)m; m = 6; R,R isomer) in doses of 30 and 100 mg/kg once a day for 7 days.

SMILES: Cl.NCCc1ccc(O)c(O)c1 [DOPAMINE HYDROCHLORIDE, 3,4-Dihydroxyphenethylamine Hydrochlorid]
- Solubility ([1]; in alcohol): soluble
- Solubility ([1]; in chloroform and ether): practically insoluble
- Solubility ([1]; in water): Freely soluble

SMILES: CCCN(CCC)CCc1ccc(O)c(O)c1 [DPDA, di-propyl dopamine]
- ED₅₀ (DA₂ receptor; femoral blood flow increase, injection into femoral artery, anesthetized dog): 1.00 nmol
- Relative Efficacy to DA₂ Standard (DA₂ receptor; optimal response divided by optimal response of DPDA): 1.00

SMILES: NCCc1ccc(O)c(O)c1 [Dopamine, 3-hydroxytyramine]
- Relative Efficacy to DA₁ Standard (DA₁ receptor): 1.00

SMILES: Oc1ccc(C[C@H]2CCCN2CCCCCCN2CCC[C@@H]2Cc2ccc(O)c(O)c2)cc1O [Test Compound, R,R-1,6-bis[2-(3,4-dihydroxybenzyl)pyrrolidin-1-yl]hexane]
- HR increase ([2]; 3 mg/kg): 6%
- duration of HR increase ([2]; 3 mg/kg): 90 min
- HR max. response ([2]; 10 mg/kg, decrease, p<0.05): -14%
- duration of HR decrease ([2]; 10 mg/kg, post-compound administration): 1 h
- HR change ([2]; 30 mg/kg): did not elicit any biologically significant changes in HR
- MBP change ([2]; 3, 10 and 30 mg/kg): significant decrease in MBP
- Peak decreases in MBP ([2]; across 3, 10 and 30 mg/kg): -17 to -22%
- duration of action (MBP decrease) ([2]; across 3, 10 and 30 mg/kg): 15 to 210 min
- urine and sodium retention ([3]; 3 mg/kg, po, urine at 1 hour, sodium at 1 and 3 hours): significant urine and sodium retention
- diuresis and natriuresis ([3]; 10 mg/kg oral, one hour post administration): significant diuresis and natriuresis
- diuresis and natriuresis ([3]; 30 mg/kg, 1, 3 and 6 hours post-dose): diuresis and natriuresis (p<0.05) were observed
- kaliuresis ([3]; 30 mg/kg, po, 1 and 3 hour post-dose): significant kaliuresis
- treatment related changes in clinical condition, body weight, or food intake (Rats): No treatment related changes were noted
- Relative Potency to DA₁ Standard (DA₁ receptor; ED50 of dopamine divided by ED50 of test compound): 11.71
- Relative Efficacy to DA₁ Standard (DA₁ receptor): 1.05
- ED₅₀ (DA₁ receptor; renal blood flow increase, injection into renal artery, anesthetized dog, phenoxybenzamine pretreated): 0.63 nmol
